This is an account of results in patent US20050222198A1, “Imidazo[4,5-c]pyridine compounds and methods of antiviral treatment” (priority 2003, published 2005).

Type in all cases: cell-based
In one series the test system is HCV replicon. The series is described as follows: Anti-HCV assay/Replicon assay 2 (luciferase). As to conditions: Hepatitis C virus, 72 h, 3 days. The method, then: • HCV Replicon Media • DMEM w/High Glucose (or MEM) • 1× Glutamine • 1× Sodium Pyruvate • 10% Heat Inactivated FBS • 1× Antibiotics Cell Culture Preparation • 1. Unthaw frozen stock in 10-12 mls of Media • 2. Allow cells to attach before adding G418 (4-6 hrs) • 3. Add G418 for a final concentration of 200 ug/mL (higher amounts are possible but cells grow slowly) • 4. Split cells 1:4 to 1:6 for optimal growth • 5. In-house replicon seems to maintain Luciferase signal for ˜20 passages HCV Replicon Assay • 1. Dilute compounds in 100 uL of HCV Replicon Media (without G418). If compounds are diluted in DMSO add DMSO to media (Final DMSO concentration should be <1%) • 2. Once cells have reached 80-90% confluency, trypsinize with 1× Trypsin • 3. […] These cells tend to clump if over trypsinized • 4. For 96 well format add 6,000-8,000 cells per well (G418 is withheld during compound testing) • 5. Incubate for 3 days at 37° C. Cells should be very close to confluent. • 6. Remove media and wash cells with 1×PBS • 7. Remove PBS and add 100 μL of 1×Promega Lysis Buffer • 8. Incubate cells at Room Temperature for 5-20 minutes • 9. Add 100 μL of room temperature Luciferase Substrate Solution (Promega) to Microfluor Black Plate (VWR) • 10. Thoroughly Mix Cell lysate (pipet up and down) before adding to Luciferase substrate • 11. Add 75 μL of lysate to the Luciferase substrate solution • 12. Read Plate On Top Count (FusionLucB program˜5 second read) • 13. Left over lysate can be frozen and used for later analysis Determination of Cytostatic Effect on MDBK Cells
Background: In antiviral work, replicon cells carry a viral genome segment that copies itself.

A short description of series [1]: HCV CC50 assay protocol (MTT). To be noted: HCV replicon cells. The procedure: (§1) • HCV Replicon Media • DMEM w/High Glucose (or MEM) • 1×Glutamine • 1× Sodium Pyruvate • 10% Heat Inactivated FBS • 1× Antibiotics Cell Culture Preparation • 1. Unthaw frozen stock in 10-12 mls of Media • 2. Allow cells to attach before adding G418 (4-6 hrs) • 3. Add G418 for a final concentration of 200 ug/ml (higher amounts are possible but cells grow slowly) • 4. Split cells 1:4 to 1:6 for optimal growth • 5. In-house replicon seems to maintain Luciferase signal for ˜20 passages HCV Replicon Assay • 1 Dilute compounds in 100 uL of HCV Replicon Media (without G418). If compounds are diluted in DMSO add DMSO to media (Final DMSO concentration should be <1%) • 2. Once cells have reached 80-90% confluency, trypsinize with 1×Trypsin • 3. […] These cells tend to clump if over trypsinized • 4. For 96 well format add 6,000-8,000 cells per well (G418 is withheld during compound testing) • 5. Incubate for 3 days at 37° C. Cells should be very close to confluent. • 6. Remove media and add 200 μL of a 0.2 mg/mL MTT solution prepared in media. • 7. Incubate for 1.5 hours to 2 hours. • 8. Remove media and add 150 μL of DMSO • 9. Mix and incubate for 5 mins at room temperature • 10. Read plate at 530 nm in the plate reader. Results

For a further series, the system named is HCV replicon cells. The series is described as follows: HCV CC50 assay protocol (MTT). As to conditions: 3 days. The procedure: as §1

What is called EC50 is the concentration at which the effect is half-maximal. A higher EC50 goes with lower potency in that assay. As a reminder, the CC50 is the concentration giving 50% cytotoxicity. Read a low CC50 as harm at low concentration. With `Fc1ccccc1-c1nc2ccn(Cc3cc(-c4ccc(Cl)cc4)no3)cc-2n1` [Example 2, 5((3-(4-chlorophenyl)isoxazol-5-yl)methyl)-2-(2-fluorophenyl)-5H-imidazo[4,5-c]pyridine], the EC50 in the series on HCV replicon was 10 nM. Besides, the CC50 at 3 days in series [1] turned out to be 26 µM.

Compound `Fc1cccc(-c2nc3ccn(Cc4ccc(OC(F)(F)F)cc4)cc-3n2)c1F` [Example 3A, 5-(4-(trifluoromethoxy)benzyl)-2-(2,3-difluorophenyl)-5H-imidazo[4,5-c]pyridine] gave an EC50 in the series on HCV replicon of 20 nM. The half-maximal cytotoxic concentration (CC50) at 3 days in series [1] is 34 µM.

`Fc1cccc(-c2nc3ccn(Cc4cc(-c5ccc(Cl)cc5)no4)cc-3n2)c1F` [Example 5, 5-((3-(4-chlorophenyl)isoxazol-5-yl)methyl)-2-(2,3-difluorophenyl)-5H-imidazo[4,5-c]pyridine] showed an EC50 with HCV replicon of 3.9 nM. Also, the CC50 at 3 days in series [1] was found to be 10.8 µM. In addition, in the series with HCV replicon cells, the CC50 was determined as 13.4 µM.

In turn, `Fc1ccc(-c2ccc(Cn3ccc4nc(-c5cccc(F)c5F)nc-4c3)cc2)c(F)c1` [Example 4, 5-(2,4-difluoro-biphenyl)methyl-2-(2,3-difluorophenyl)-5H-imidazo[4,5-c]pyridine] returned an EC50 with HCV replicon of 10 nM. In series [1], this compound registered a cytotoxic concentration (CC50) at 3 days of 19 µM.
